Measured values taken from PubChem BioAssay (NCI).
Where “and” joins values, the source holds several entries; their conditions need not be identical. Equal values may be shown once.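 Tested at 5 concentrations; 48 h exposure; 96-well plates; endpoints linearly interpolated, else capped at highest concentration. TGI marks complete inhibition of growth.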

Tested on: P388 leukemia
Experiment: NCI tumour cell line growth inhibition, 48 h

SMILES	TGI
COC(C(=O)C(O)C(C)O)C1Cc2cc3cc(OC4CC(OC(C)=O)C(OC5CC(O)C(OC)C(C)O5)C(C)O4)cc(O)c3c(O)c2C(=O)C1OC1CC(OC2CC(OC3CC(C)(O)C(OC(=O)C(C)C)C(C)O3)C(O)C(C)O2)C(O)C(C)O1 (configuration not stated)	237 nM and 29.3 nM
CCc1ccccc1N1CCN(C(=O)c2cc(OC)c(OC)c(OC)c2)CC1	367 nM
